Test results taken from patent publication US9630961B2, “Arginine methyltransferase inhibitors and uses thereof” (Epizyme, Inc., priority 2013, dated 2017).

Target: T1, CARM1 (PRMT4) (Homo sapiens, UniProt Q86X55)
T1 construct: Flag-CARM1-His; made in house; host or cells: HEK 293F cells (BacMam virus)
T1 sequence (Q86X55 1-585 isoform Q86X55-1): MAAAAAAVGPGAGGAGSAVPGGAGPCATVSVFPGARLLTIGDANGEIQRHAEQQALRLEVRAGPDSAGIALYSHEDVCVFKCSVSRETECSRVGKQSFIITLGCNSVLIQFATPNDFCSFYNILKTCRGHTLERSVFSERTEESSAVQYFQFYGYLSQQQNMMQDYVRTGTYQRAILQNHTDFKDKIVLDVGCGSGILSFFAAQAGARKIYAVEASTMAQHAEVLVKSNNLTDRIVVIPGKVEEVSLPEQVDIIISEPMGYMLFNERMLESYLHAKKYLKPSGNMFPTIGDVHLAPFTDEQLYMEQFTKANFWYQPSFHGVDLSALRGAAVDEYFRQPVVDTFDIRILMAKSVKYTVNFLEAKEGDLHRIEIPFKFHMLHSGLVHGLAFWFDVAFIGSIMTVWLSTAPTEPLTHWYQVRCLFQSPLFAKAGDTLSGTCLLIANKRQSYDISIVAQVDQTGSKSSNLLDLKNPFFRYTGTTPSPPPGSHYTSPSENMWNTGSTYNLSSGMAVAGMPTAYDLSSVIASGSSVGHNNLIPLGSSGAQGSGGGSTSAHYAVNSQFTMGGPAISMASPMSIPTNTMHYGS
Test: CARM1 Biochemical Assay (3H-SAM Flashplate, peptide substrate)
Conditions: 30 min preincubation, room temperature
Excerpt: S-adenosylmethionine (SAM), S-adenosylhomocysteine (SAH), bicine, Tween20, dimethylsulfoxide (DMSO), bovine skin gelatin (BSG), sodium butyrate and Tris(2-carboxyethyl)phosphine hydrochloride solution (TCEP) were purchased from Sigma-Aldrich at the highest level of purity possible. ^3H-SAM was purchase from American Radiolabeled Chemicals with a specific activity of 80 Ci/mmol. 384-well streptavidin Flashplates were purchased from PerkinElmer.
Peptide representative of human histone H3 residues 16-30 was synthesized with an N-terminal linker-affinity tag motif and a C-terminal amide cap by 21st Century Biochemicals. The peptide was purified by high-performance liquid chromatography (HPLC) to greater than 95% purity and confirmed by liquid chromatography mass spectrometry (LC-MS). The sequence was Biot-Ahx-[…]-amide and contained a monomethylated arginine at position 26 (SEQ ID NO.:14).
Human CARM1 (PRMT4) (NM_199141.1) transcript clone was amplified from an HEK 293 cDNA library, incorporating a flanking 5′ sequence encoding a FLAG tag ([…]) (SEQ ID NO.:6) fused directly to Ala 2 of CARM1 and 3′ sequence encoding a hexa His sequence ([…]) (SEQ ID NO.:15) fused directly to Ser 608. The gene sequence encoding isoform1 containing a deletion of amino acids 539-561 was amplified subsequently and subcloned into pFastBacMam (Viva Biotech).
Recombinant baculovirus were generated according to Bac-to-Bac kit instructions (Life Technologies). […] Infections were carried out at 37° C. for 48 hours, harvested by centrifugation, and stored at −80° C. for purification.
Column was washed with 500 mM NaCl in buffer A and Flag-CARM1-His was eluted with 200 ug/ml FLAG peptide in buffer A. Pooled fractions were dialyzed in 20 mM Tris, 150 mM NaCl, 5% glycerol and 1 mM DTT, pH 7.8. The purity of recovered protein was 94.
General Procedure for CARM1 Enzyme Assays on Peptide Substrates.
The assays were all performed in a buffer consisting of 20 mM Bicine (pH=7.6), 1 mM TCEP, 0.005% BSG, and 0.002% Tween 20, prepared on the day of use. Compounds in 100% DMSO (1 ul) were spotted into a polypropylene 384-well V-bottom plates (Greiner) using a Platemate Plus outfitted with a 384-channel head (Thermo Scientific). DMSO (1 ul) was added to Columns 11, 12, 23, 24, rows A-H for the maximum signal control and 1 ul of SAH, a known product and inhibitor of CARM1, was added to columns 11, 12, 23, 24, rows I-P for the minimum signal control. A cocktail (40 ul) containing the CARM1 enzyme was added by Multidrop Combi (Thermo-Fisher). The compounds were allowed to incubate with CARM1 for 30 min at room temperature, then a cocktail (10 ul) containing ^3H-SAM and peptide was added to initiate the reaction (final volume=51 ul). The final concentrations of the components were as follows: CARM1 was 0.25 nM, ^3H-SAM was 30 nM, peptide was 250 nM, SAH in the minimum signal control wells was 1 mM, and the DMSO concentration was 2%. The assays were stopped by the addition of non-radiolabeled SAM (10 ul) to a final concentration of 300 uM, which dilutes the ^3H-SAM to a level where its incorporation into the peptide substrate is no longer detectable. 50 ul of the reaction in the 384-well polypropylene plate was then transferred to a 384-well Flashplate and the biotinylated peptides were allowed to bind to the streptavidin surface for at least 1 hour before being washed once with 0.1% Tween20 in a Biotek ELx405 plate washer. The plates were then read in a PerkinElmer TopCount plate reader to measure the quantity of ^3H-labeled peptide bound to the Flashplate surface, measured as disintegrations per minute (dpm) or alternatively, referred to as counts per minute (cpm).
Where dpm=disintegrations per minute, cmpd=signal in assay well, and min and max are the respective minimum and maximum signal controls.
Where top and bottom are the normally allowed to float, but may be fixed at 100 or 0 respectively in a 3-parameter fit. […]

Row | Compound | IC50 [µM]
1 | CN(CCN)Cc1c[nH]nc1-c1ccsc1 [Compound 3] | 3.01 to 10
2 | CN(CCN)Cc1c[nH]nc1-c1cncnc1 [Compound 4] | ≥ 10
3 | CN(CCN)Cc1c[nH]nc1-c1cccs1 [Compound 5] | ≥ 10
4 | CN(CCN)Cc1c[nH]nc1-c1ccco1 [Compound 6] | 3.01 to 10
5 | CN(CCN)Cc1c[nH]nc1-c1ccoc1 [Compound 7] | 3.01 to 10
6 | CN(CCN)Cc1c[nH]nc1-c1cnn(C)c1 [Compound 8] | 3.01 to 10
7 | CN(CCN)Cc1c[nH]nc1-c1ccc2scnc2c1 [Compound 9] | 1.01 to 3
8 | Cc1noc(C)c1-c1n[nH]cc1CN(C)CCN [Compound 10] | ≥ 10
9 | COc1ncc(-c2n[nH]cc2CN(C)CCN)cn1 [Compound 11] | ≥ 10
10 | CN(CCN)Cc1c[nH]nc1-c1cn[nH]c1 [Compound 12] | ≥ 10
11 | CN(CCN)Cc1c[nH]nc1-c1cnc2[nH]ccc2c1 [Compound 13] | 0.101 to 1
12 | CN(CCN)Cc1c[nH]nc1-c1cc[nH]n1 [Compound 14] | ≥ 10
